Results: patent US7700576B2, “Pharmaceutical composition on basis of reverse transcriptase inhibitor and meldonium” (priority 2005, dated 2010)

How the values were obtained:
[1] = mouse, in vivo
Experimental: (§1) For this purpose in an experiment of analogous pattern, the experimental animals' neurological reactions were assessed after a fortnight. For this assessment, the common test of pain latent period in the tail compression model as well as the appraisal of cerebral cortex neuron degenerative transformation was made (molecular and external granule layers).

[2] = test system: cerebral cortex neurons; assay: Cerebral cortex neuron degenerative transformation (molecular and external granule layers); format: in vivo, mice; conditions: after a fortnight
Experimental: as §1

[3] = test system: myocardium; design: species or system mice; conditions: mouse, in vivo, ip
Experimental: The cardiotoxic action of Zidovudine and Meldonium pharmaceutical compositions was investigated by introducing them into male mice of initial mass 15.69±1.56 g during a fortnight. Throughout the experiment, the animals were kept in standard laboratory conditions at temperature of 22±0.5° C. and 12 hours light/darkness cycle, being fed with standard laboratory animal food. For the control group (n=6), 10 ml of 0.9% NaCl aqueous solution was intraperitoneally introduced daily (1st and 12th group). In a series of experiments, the following solutions were administered intraperitoneally for animal trial groups (including 6 mice each) daily. On the 15th day of the trial, the animals were decapitated, hearts were taken out and placed into 10% formalin solution. For immuno-histochemical research, organs were fixed in paraffin, and preparations of 4 μm thickness were sliced which were tinged according to the avidin-biotin immuno-histochemical method by use of DAKO LSAB reagent kit.

[4] = test system: mice; conditions: p.o. for mice; cited from earlier work
[5] = oral introduction; cited from earlier work

Row | Structure (SMILES) | Algesia (pain latent period, tail compression) [1] | Increase in degenerated neurons of the cerebral cortex as compared with the control [2] [fold] | Histological changes of heart tissue [3] | toxicity [4] | bioavailability [5]
1 | Nc1ccn([C@@H]2CS[C@H](CO)O2)c(=O)n1 [Lamivudine, (2R-cis)-4-Amino-1-[2-(hydroxymethyl)-1,3-oxathiolan-5-yl]-2(IH)-pyrimidinone] | provokes significant algesia | 3 | – | – | –
2 | Cc1cn([C@H]2C[C@H](N=[N+]=[N-])[C@@H](CO)O2)c(=O)[nH]c1=O [AZT, 3′-Azido-3′-deoxythymidine] | provokes significant algesia | 3 | induces perivascular oedema, degeneration of myocardium adipose tissue and infiltration with leucocytes | – | –
3 | C[N+](C)(C)NCCC(=O)[O-] [Meldonium, 3-(2,2,2-Trimethylhydrazinium) propionate] | – | – | – | more than 25,000 mg/kg | very high
4 | Cc1cn([C@H]2C=C[C@@H](CO)O2)c(=O)[nH]c1=O [Stavudine, 2′,3′-Didehydro-3′-deoxythymidine] | provokes significant algesia | 3 | induces perivascular oedema, degeneration of myocardium adipose tissue and infiltration with leucocytes | – | –
